Test results taken from ChEMBL document CHEMBL1255447, “Efflux pumps, OprD porin, AmpC beta-lactamase, and multiresistance in Pseudomonas aeruginosa isolates from cystic fibrosis patients” (2010).
Converted amounts (≈) assume the structure as drawn.

How the values were obtained:
[1] = system: Pseudomonas aeruginosa; test: Antimicrobial activity against Pseudomonas aeruginosa isolate 1333c from fibrosis patient by Etest; assay type: functional
[2] = system: Pseudomonas aeruginosa; test: Antimicrobial activity against Pseudomonas aeruginosa isolate 3149 from fibrosis patient by Etest; assay type: functional
[3] = system: Pseudomonas aeruginosa; test: microbe, parasite or virus in culture; conditions: 2779-con
Description: Antimicrobial activity against Pseudomonas aeruginosa 2779-con by Etest

[4] = system: Pseudomonas aeruginosa; test: Antimicrobial activity against Pseudomonas aeruginosa Z799/61 by Etest; assay type: functional
[5] = system: Pseudomonas aeruginosa; test: Antimicrobial activity against Pseudomonas aeruginosa isolate 1712c from fibrosis patient by Etest; assay type: functional
[6] = system: Pseudomonas aeruginosa; test: Antimicrobial activity against Pseudomonas aeruginosa isolate 1693c from fibrosis patient by Etest; assay type: functional
[7] = system: Pseudomonas aeruginosa; test: Antimicrobial activity against Pseudomonas aeruginosa isolate 1530c from fibrosis patient by Etest; assay type: functional
[8] = system: Pseudomonas aeruginosa; test: Antimicrobial activity against Pseudomonas aeruginosa isolate 1253 from fibrosis patient by Etest; assay type: functional
[9] = system: Pseudomonas aeruginosa; test: Antimicrobial activity against Pseudomonas aeruginosa R70 Etest; assay type: functional
[10] = system: Pseudomonas aeruginosa; test: Antimicrobial activity against Pseudomonas aeruginosa isolate 1726 from fibrosis patient by Etest; assay type: functional
[11] = system: Pseudomonas aeruginosa; test: Antimicrobial activity against Pseudomonas aeruginosa isolate 13167 from fibrosis patient by Etest; assay type: functional
[12] = system: Pseudomonas aeruginosa; test: microbe, parasite or virus in culture; conditions: isolate 13120
Description: Antimicrobial activity against Pseudomonas aeruginosa isolate 13120 from fibrosis patient by Etest

[13] = system: Pseudomonas aeruginosa; test: Antimicrobial activity against Pseudomonas aeruginosa 1405-con D2 by Etest; assay type: functional
[14] = system: Pseudomonas aeruginosa; test: Antimicrobial activity against Pseudomonas aeruginosa isolate 1495c from fibrosis patient by Etest; assay type: functional
[15] = system: Pseudomonas aeruginosa; test: Antimicrobial activity against Pseudomonas aeruginosa isolate 1247c from fibrosis patient by Etest; assay type: functional
[16] = system: Pseudomonas aeruginosa; test: Antimicrobial activity against Pseudomonas aeruginosa isolate 15110c from fibrosis patient by Etest; assay type: functional
[17] = system: Pseudomonas aeruginosa; test: Antimicrobial activity against Pseudomonas aeruginosa M1251 by Etest
[18] = system: Pseudomonas aeruginosa; test: Antimicrobial activity against Pseudomonas aeruginosa isolate 16008 from fibrosis patient by Etest; assay type: functional
[19] = system: Pseudomonas aeruginosa; test: Antimicrobial activity against Pseudomonas aeruginosa isolate 17112 from fibrosis patient by Etest; assay type: functional
[20] = system: Pseudomonas aeruginosa; test: Antimicrobial activity against Pseudomonas aeruginosa isolate 1529c from fibrosis patient by Etest; assay type: functional
[21] = system: Pseudomonas aeruginosa; test: Antimicrobial activity against Pseudomonas aeruginosa R20 Etest; assay type: functional
[22] = system: Pseudomonas aeruginosa; test: Antimicrobial activity against Pseudomonas aeruginosa isolate 12142c from fibrosis patient by Etest; assay type: functional
[23] = system: Pseudomonas aeruginosa; test: Antimicrobial activity against Pseudomonas aeruginosa isolate 1352c from fibrosis patient by Etest; assay type: functional
[24] = system: Pseudomonas aeruginosa; test: Antimicrobial activity against Pseudomonas aeruginosa isolate 1248c from fibrosis patient by Etest; assay type: functional
[25] = system: Pseudomonas aeruginosa; test: Antimicrobial activity against Pseudomonas aeruginosa isolate 1681c from fibrosis patient by Etest; assay type: functional
[26] = system: Pseudomonas aeruginosa; test: Antimicrobial activity against Pseudomonas aeruginosa isolate 17145c from fibrosis patient by Etest; assay type: functional
[27] = system: Pseudomonas aeruginosa; test: Antimicrobial activity against Pseudomonas aeruginosa isolate 12102 from fibrosis patient by Etest; assay type: functional
[28] = system: Pseudomonas aeruginosa; test: Antimicrobial activity against Pseudomonas aeruginosa isolate 14169c from fibrosis patient by Etest; assay type: functional
[29] = system: Pseudomonas aeruginosa; test: Antimicrobial activity against Pseudomonas aeruginosa isolate 1240 from fibrosis patient by Etest; assay type: functional
[30] = system: Pseudomonas aeruginosa; test: Antimicrobial activity against Pseudomonas aeruginosa isolate 1665 from fibrosis patient by Etest; assay type: functional
[31] = system: Pseudomonas aeruginosa; test: Antimicrobial activity against Pseudomonas aeruginosa AHP Etest; assay type: functional
[32] = system: Pseudomonas aeruginosa; test: Antimicrobial activity against Pseudomonas aeruginosa isolate 15107 from fibrosis patient by Etest; assay type: functional

Compound | MIC [1] | MIC [2] | MIC [4] | MIC [5] | MIC [6] | MIC [7] | MIC [8] | MIC [9] | MIC [10] | MIC [11] | MIC [13] | MIC [14] | MIC [15] | MIC [16] | MIC [19] | MIC [20] | MIC [22] | MIC [23] | MIC [24] | MIC [25] | further results
C[C@@H](O)[C@H]1C(=O)N2C(C(=O)O)=C(S[C@@H]3CN[C@H](C(=O)N(C)C)C3)[C@H](C)[C@H]12 [MEROPENEM] | 16 µg/mL (≈ 41.7 µM) | 8 µg/mL (≈ 20.9 µM) | ≤ 0.06 µg/mL | 32 µg/mL (≈ 83.4 µM) | 2 µg/mL (≈ 5.22 µM) | 0.5 µg/mL (≈ 1.3 µM) | 32 µg/mL (≈ 83.4 µM) | > 32 µg/mL | 0.12 µg/mL (≈ 0.313 µM) | 4 µg/mL (≈ 10.4 µM) | 8 µg/mL (≈ 20.9 µM) | > 32 µg/mL | 4 µg/mL (≈ 10.4 µM) | 16 µg/mL (≈ 41.7 µM) | > 32 µg/mL | 4 µg/mL (≈ 10.4 µM) | 32 µg/mL (≈ 83.4 µM) | 16 µg/mL (≈ 41.7 µM) | 16 µg/mL (≈ 41.7 µM) | 8 µg/mL (≈ 20.9 µM) | MIC [3]: 1 µg/mL (≈ 2.61 µM); MIC [12]: 32 µg/mL (≈ 83.4 µM); MIC [17]: 8 µg/mL (≈ 20.9 µM); MIC [18]: 4 µg/mL (≈ 10.4 µM); MIC [21]: 0.5 µg/mL (≈ 1.3 µM); MIC [26]: 4 µg/mL (≈ 10.4 µM); MIC [27]: 16 µg/mL (≈ 41.7 µM); MIC [28]: 4 µg/mL (≈ 10.4 µM); MIC [29]: 8 µg/mL (≈ 20.9 µM); MIC [30]: > 32 µg/mL; MIC [31]: 0.25 µg/mL (≈ 0.652 µM); MIC [32]: 2 µg/mL (≈ 5.22 µM)
GENTAMICIN | > 32 µg/mL | > 32 µg/mL | < 0.12 µg/mL | > 32 µg/mL | 16 µg/mL | 32 µg/mL | 16 µg/mL | 1 µg/mL | 2 µg/mL | 32 µg/mL | 2 µg/mL | > 64 µg/mL | > 32 µg/mL | > 32 µg/mL | 1 µg/mL | > 32 µg/mL | > 32 µg/mL | > 32 µg/mL | > 32 µg/mL | 32 µg/mL | MIC [18]: 16 µg/mL; MIC [21]: < 0.25 µg/mL; MIC [26]: 32 µg/mL; MIC [27]: 4 µg/mL; MIC [28]: 32 µg/mL; MIC [29]: 2 µg/mL; MIC [30]: 16 µg/mL; MIC [31]: < 0.12 µg/mL; MIC [32]: > 32 µg/mL
NCC[C@H](O)C(=O)N[C@@H]1C[C@H](N)[C@@H](O[C@H]2O[C@H](CN)[C@@H](O)[C@H](O)[C@H]2O)[C@H](O)[C@H]1O[C@H]1O[C@H](CO)[C@@H](O)[C@H](N)[C@H]1O [AMIKACIN] | 64 µg/mL (≈ 109 µM) | > 64 µg/mL | 1 µg/mL (≈ 1.71 µM) | > 64 µg/mL | 1 µg/mL (≈ 1.71 µM) | 32 µg/mL (≈ 54.6 µM) | 32 µg/mL (≈ 54.6 µM) | 1 µg/mL (≈ 1.71 µM) | 2 µg/mL (≈ 3.42 µM) | 64 µg/mL (≈ 109 µM) | 4 µg/mL (≈ 6.83 µM) | > 64 µg/mL | > 64 µg/mL | > 64 µg/mL | 1 µg/mL (≈ 1.71 µM) | 64 µg/mL (≈ 109 µM) | > 64 µg/mL | > 64 µg/mL | > 64 µg/mL | 64 µg/mL (≈ 109 µM) | MIC [3]: 1 µg/mL (≈ 1.71 µM); MIC [12]: 1 µg/mL (≈ 1.71 µM); MIC [17]: 1 µg/mL (≈ 1.71 µM); MIC [18]: 32 µg/mL (≈ 54.6 µM); MIC [21]: ≤ 0.5 µg/mL; MIC [26]: 64 µg/mL (≈ 109 µM); MIC [27]: 4 µg/mL (≈ 6.83 µM); MIC [28]: 32 µg/mL (≈ 54.6 µM); MIC [29]: 4 µg/mL (≈ 6.83 µM); MIC [30]: > 64 µg/mL; MIC [31]: ≤ 0.5 µg/mL; MIC [32]: > 64 µg/mL
C[C@@H](O)[C@H]1C(=O)N2C(C(=O)O)=C(SCCNC=N)C[C@H]12 [IMIPENEM ANHYDROUS] | 32 µg/mL (≈ 107 µM) | 32 µg/mL (≈ 107 µM) | 0.5 µg/mL (≈ 1.67 µM) | 32 µg/mL (≈ 107 µM) | 8 µg/mL (≈ 26.7 µM) | 8 µg/mL (≈ 26.7 µM) | > 32 µg/mL | 16 µg/mL (≈ 53.4 µM) | 4 µg/mL (≈ 13.4 µM) | 4 µg/mL (≈ 13.4 µM) | 16 µg/mL (≈ 53.4 µM) | > 32 µg/mL | 16 µg/mL (≈ 53.4 µM) | > 32 µg/mL | 128 µg/mL (≈ 428 µM) | 16 µg/mL (≈ 53.4 µM) | 32 µg/mL (≈ 107 µM) | > 32 µg/mL | 16 µg/mL (≈ 53.4 µM) | 32 µg/mL (≈ 107 µM) | MIC [3]: 2 µg/mL (≈ 6.68 µM); MIC [12]: 16 µg/mL (≈ 53.4 µM); MIC [17]: 4 µg/mL (≈ 13.4 µM); MIC [18]: 64 µg/mL (≈ 214 µM); MIC [21]: 2 µg/mL (≈ 6.68 µM); MIC [26]: 32 µg/mL (≈ 107 µM); MIC [27]: 32 µg/mL (≈ 107 µM); MIC [28]: 16 µg/mL (≈ 53.4 µM); MIC [29]: 16 µg/mL (≈ 53.4 µM); MIC [30]: 64 µg/mL (≈ 214 µM); MIC [31]: 0.12 µg/mL (≈ 0.401 µM); MIC [32]: 8 µg/mL (≈ 26.7 µM)
CC(C)(O/N=C(\C(=O)N[C@@H]1C(=O)N2C(C(=O)[O-])=C(C[n+]3ccccc3)CS[C@H]12)c1csc(N)n1)C(=O)O [CEFTAZIDIME] | 128 µg/mL (≈ 234 µM) | 8 µg/mL (≈ 14.6 µM) | ≤ 0.12 µg/mL | > 256 µg/mL | 8 µg/mL (≈ 14.6 µM) | 4 µg/mL (≈ 7.32 µM) | 8 µg/mL (≈ 14.6 µM) | 8 µg/mL (≈ 14.6 µM) | 2 µg/mL (≈ 3.66 µM) | 64 µg/mL (≈ 117 µM) | 64 µg/mL (≈ 117 µM) | > 256 µg/mL | 8 µg/mL (≈ 14.6 µM) | 256 µg/mL (≈ 468 µM) | 64 µg/mL (≈ 117 µM) | 4 µg/mL (≈ 7.32 µM) | 256 µg/mL (≈ 468 µM) | 64 µg/mL (≈ 117 µM) | 256 µg/mL (≈ 468 µM) | 256 µg/mL (≈ 468 µM) | MIC [3]: 32 µg/mL (≈ 58.5 µM); MIC [12]: 4 µg/mL (≈ 7.32 µM); MIC [17]: 4 µg/mL (≈ 7.32 µM); MIC [26]: 64 µg/mL (≈ 117 µM); MIC [27]: 4 µg/mL (≈ 7.32 µM); MIC [28]: 8 µg/mL (≈ 14.6 µM); MIC [29]: 256 µg/mL (≈ 468 µM); MIC [30]: 256 µg/mL (≈ 468 µM); MIC [31]: 0.5 µg/mL (≈ 0.915 µM); MIC [32]: 8 µg/mL (≈ 14.6 µM)
